Laboratory results taken from PMC2195886 (The Journal of Experimental Medicine, 2001).
Entries after “also recorded” stand apart in the source; their conditions may differ. Like-named read-outs stand apart in the source and are kept apart here. Peptide text beside a SMILES is read from it.

How the values were obtained:
HLA-A*0201 [1] = biological target: T1, HLA-A*0201 (Homo sapiens, UniProt P04439, D140Y/D185E/D98H/E176V/E277Q/G131W/G231S/I119V/I121R/I166T/I218V/L300P/L318F/N151K/N90K/P208A/P217A/Q86G/Q94H/R138H/R169H/T345S)
HLA-A*0201 [2] = biological target: T1, HLA-A*0201; assay: cell-based; format: binding
20S proteasomes = assay: 1 μg of purified proteasome; details: human, 37°C, up to 24 h

not cleaved (20S proteasomes)	Compound	cleaved bond (20S proteasomes)	further results
–	CC[C@H](C)[C@H](NC(=O)[C@H](CCCCN)NC(=O)[C@H](CC(C)C)NC(=O)[C@H](CCCCN)NC(=O)[C@H](CCCCN)NC(=O)[C@H](CS)NC(=O)[C@H](CS)NC(=O)[C@H](CC(C)C)NC(=O)[C@@H](N)CCCNC(=N)N)C(=O)O (H-RLCCKKLKI-OH)	–	IC50 (HLA-A*0201 [2]): 20.8 µM
–	DEALAIAALELLPRELFPPLFMAAFDG	Leu45-E46, major, 1 h; also recorded: Met58-Ala59, minor, 1 h; also recorded: Ala59-A60, minor, 1 h	–
–	FLPSDYFPSV [HBV control, reference compound]	–	Stability DT50 (HLA-A*0201 [1]): >4 h
not COOH-terminally excised	GNSISISALQSLLQHLIGLSNLTHVLY	L423-Q424, major, 1 h; also recorded: L433-S434, major, 1 h	–
not COOH-terminally excised	IPVEVLVDLFLKEGACDELFSYLIEKV	–	–
–	LAYLHARLRELLCELGRPSMVWLSANP	L470-L471, minor, 1 h	–
–	PLETLSITNCRLSEGDVMHLSQSPSVS	L342-S343, minor, 1 h	–
–	PTLAKFSPYLGQMINLRRLLLSHIHAS	L267-S268, minor, 1 h	–
only Leu-108 was generated	QHLHLETFKAVLDGLDVLLAQEVRPRR	Phe97-Lys98, major, 1 h; also recorded: Leu108-A109, major, 1 h	–
not COOH-terminally excised	QSLLQHLIGLSNLTHVLYPVPLESYED	–	–
not COOH-terminally generated	SQFLSLQCLQALYVDSLFFLRGRLDQL	Val303-Asp304, minor, 1 h; also recorded: Asp304-S305, minor, 1 h; also recorded: Leu306-F307, major, 1 h; also recorded: Leu309-R310, major, 1 h	–
not COOH-terminally excised	VMLTDVSPEPLQALLERASATLQDLVF	–	–
–	WTVWSGNRASLYSFPEPEAAQPMTKKR	Ala141-S142, major, 1 h; also recorded: Ala151-A152, major, 1 h	–
